The text below walks through data of patent publication US9605022B2, “Macrocyclic compounds for inhibition of inhibitors of apoptosis” (Ensemble Therapeutics Corporation, priority 2012, dated 2017).

The term IC50 denotes the concentration needed to halve the response being measured.

Test [1] deals with XIAP BIR2-3 (His-BIR2-3 (125-356, C202A/C213G, XIAP)) (Homo sapiens (Human), UniProt P98170, C202A/C213G). The test can be described thus: XIAP-BIR2-3 Dimeric SMAC Peptide Homogeneous Time Resolved Fluorescence (HTRF) Assay. Particulars: 0.5 nM N-His-BIR2-3, 20 nM fluorescein labeled dimeric SMAC peptide; read-out: XIAP BIR2-3 FRET IC50. In kind it is binding. In general terms: In TR-FRET formats the signal depends on donor and acceptor labels being close together.

Test [2] concerns the target XIAP BIR3 (His-BIR3 (241-356, XIAP)) (Homo sapiens (Human), UniProt P98170). The test can be described thus: XIAP-BIR3/SMAC Homogeneous Time Resolved Fluorescence (HTRF) Assay. The class given is binding. The conditions noted are these: 1 nM N-His-BIR3, 5 nM fluorescein labeled SMAC peptide; read-out: XIAP BIR3 FRET IC50.

XIAP BIR3 (His-BIR3 (241-356, XIAP)), sequence (P98170 241-356): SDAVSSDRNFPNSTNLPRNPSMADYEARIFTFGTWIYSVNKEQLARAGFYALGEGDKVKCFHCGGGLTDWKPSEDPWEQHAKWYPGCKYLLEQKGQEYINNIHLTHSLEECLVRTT
XIAP BIR2-3 (His-BIR2-3 (125-356, C202A/C213G, XIAP)), sequence (P98170 125-356 C202A/C213G): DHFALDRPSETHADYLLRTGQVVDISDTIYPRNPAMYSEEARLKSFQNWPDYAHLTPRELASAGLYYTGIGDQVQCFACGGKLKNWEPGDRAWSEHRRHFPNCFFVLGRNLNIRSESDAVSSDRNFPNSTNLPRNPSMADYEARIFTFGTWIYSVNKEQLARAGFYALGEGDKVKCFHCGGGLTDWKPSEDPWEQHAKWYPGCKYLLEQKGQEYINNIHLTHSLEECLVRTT

As to `CN[C@@H](C)C(=O)N[C@H](C(=O)N1CC[C@@H]2[C@H]1C(=O)N[C@@H](Cc1ccc3ccccc3c1)C(=O)N[C@H](C(=O)O)Cc1ccc(cc1)OCc1cn(nn1)[C@@H]1CCN(C(=O)[C@@H](NC(=O)[C@H](C)NC)C(C)(C)C)[C@@H]1C(=O)N[C@@H](Cc1ccc3ccccc3c1)C(=O)N[C@H](c1nnn[nH]1)Cc1ccc(cc1)OCc1cn2nn1)C(C)(C)C` (single isomer, unassigned) [Example 15], the IC50 in test [1] turned out to be 0.3 nM; in test [2] it was 1.9 nM.
The corresponding values for `CN[C@@H](C)C(=O)N[C@H](C(=O)N1CC[C@@H]2[C@H]1C(=O)N[C@@H](Cc1ccc3ccccc3c1)C(=O)N[C@H](C(=O)O)Cc1ccc(cc1)OCc1cn(nn1)[C@@H]1CCN(C(=O)[C@@H](NC(=O)[C@H](C)NC)C(C)(C)C)[C@@H]1C(=O)N[C@@H](Cc1ccc3ccccc3c1)C(=O)N[C@H](c1nnn[nH]1)Cc1ccc(cc1)OCc1cn2nn1)C(C)(C)C` (single isomer, unassigned) [Example 16] are 2.2 nM and 4.4 nM.
The matching figures for `CN[C@@H](C)C(=O)N[C@H](C(=O)N1CC[C@@H]2[C@H]1C(=O)N[C@@H](Cc1ccc3ccccc3c1)C(=O)N[C@H](C(=O)O)Cc1ccc(cc1)OCc1cn(nn1)[C@@H]1CCN(C(=O)[C@@H](NC(=O)[C@H](C)NC)C(C)(C)C)[C@@H]1C(=O)N[C@@H](Cc1ccc3ccccc3c1)C(=O)N[C@H](C(=O)O)c1ccc(cc1)OCc1cn2nn1)C(C)(C)C` [Example 1]: 1.1 nM and 4.9 nM.
On to `CN[C@@H](C)C(=O)N[C@H](C(=O)N1CC[C@H]2OCc3cn(nn3)CCC[C@H](C(=O)O)NC(=O)[C@H](Cc3ccc4ccccc4c3)NC(=O)[C@@H]3[C@@H](CCN3C(=O)[C@@H](NC(=O)[C@H](C)NC)C(C)(C)C)OCc3cn(nn3)CCC[C@H](C(=O)O)NC(=O)[C@H](Cc3ccc4ccccc4c3)NC(=O)[C@H]21)C(C)(C)C` [Example 3], for which the IC50 amounted to 0.8 nM in test [1] and 1.9 nM in test [2].
The matching figures for `CN[C@@H](C)C(=O)N[C@H](C(=O)N1CC[C@H]2OCc3cn(nn3)[C@H](C(=O)O)CCNC(=O)[C@H](Cc3ccc4ccccc4c3)NC(=O)[C@@H]3[C@@H](CCN3C(=O)[C@@H](NC(=O)[C@H](C)NC)C(C)(C)C)OCc3cn(nn3)[C@H](C(=O)O)CCNC(=O)[C@H](Cc3ccc4ccccc4c3)NC(=O)[C@H]21)C(C)(C)C` [Example 4]: 1.6 nM and 57.8 nM.
The matching figures for `CN[C@@H](C)C(=O)N[C@H](C(=O)N1CC[C@@H]2[C@H]1[C@@H](Cc1ccc3ccccc3c1)C(=O)N[C@H](C(=O)O)Cc1ccc(cc1)OCc1cn(nn1)[C@@H]1CCN(C(=O)[C@@H](NC(=O)[C@H](C)NC)C(C)(C)C)[C@@H]1C(=O)C[C@@H](Cc1ccc3ccccc3c1)C(=O)N[C@H](C(=O)OC)Cc1ccc(cc1)OCc1cn2nn1)C(C)(C)C` [Example 7]: 6.5 nM and 29 nM.
As to `CN[C@@H](C)C(=O)N[C@H](C(=O)N1CC[C@@H]2[C@H]1C(=O)N[C@@H](Cc1ccc3ccccc3c1)C(=O)N[C@H](C(=O)O)Cc1ccc(cc1)OCc1cn(nn1)[C@@H]1CCN(C(=O)[C@@H](NC(=O)[C@H](C)NC)C(C)(C)C)[C@@H]1C(=O)N[C@@H](Cc1ccc3ccccc3c1)C(=O)N[C@H](C(=O)NS(=O)(=O)c1ccccn1)Cc1ccc(cc1)OCc1cn2nn1)C(C)(C)C` [Example 10], the IC50 in test [1] was found to be 16.9 nM; in test [2], 63.1 nM.
Regarding `CN[C@@H](C)C(=O)N[C@H](C(=O)N1CC[C@@H]2[C@H]1C(=O)N[C@@H](Cc1ccc3ccccc3c1)C(=O)N[C@H](C(=O)O)Cc1ccc(cc1)OCc1cn(nn1)[C@@H]1CCN(C(=O)[C@@H](NC(=O)[C@H](C)NC)C(C)(C)C)[C@@H]1C(=O)N[C@@H](Cc1ccc3ccccc3c1)C(=O)N[C@H](C(=O)NS(=O)(=O)C1CC1)Cc1ccc(cc1)OCc1cn2nn1)C(C)(C)C` [Example 11], the concentration for half-maximal inhibition (IC50) in test [1] came out at 1.3 nM; in test [2] it was 10.3 nM.
The matching figures for `CN[C@@H](C)C(=O)N[C@H](C(=O)N1CC[C@@H]2[C@H]1C(=O)NC(=O)C[C@@H](Cc1ccc3ccccc3c1)C(=O)N[C@H](C(=O)O)Cc1ccc(cc1)OCc1cn(nn1)[C@@H]1CCN(C(=O)[C@@H](NC(=O)[C@H](C)NC)C(C)(C)C)[C@@H]1C(=O)N[C@@H](Cc1ccc3ccccc3c1)C(=O)N[C@H](c1n[nH]c(=O)o1)Cc1ccc(cc1)OCc1cn2nn1)C(C)(C)C` [Example 14]: 1.3 nM and 8.6 nM.
Turning to `CN[C@@H](C)C(=O)N[C@H](C(=O)N1CC[C@@H]2[C@H]1C(=O)N[C@@H](Cc1ccc3ccccc3c1)C(=O)N[C@H](C(=O)O)Cc1ccc(cc1)OCc1cn(nn1)[C@@H]1CCN(C(=O)[C@@H](NC(=O)[C@H](C)NC)C(C)(C)C)[C@@H]1C(=O)N[C@@H](Cc1ccc3ccccc3c1)C(=O)N[C@H](c1nc(=S)o[nH]1)Cc1ccc(cc1)OCc1cn2nn1)C(C)(C)C` [Example 17], the half-inhibitory concentration (IC50) in test [1] amounted to 0.8 nM; in test [2], 3.2 nM.
`CN[C@@H](C)C(=O)N[C@H](C(=O)N1CC[C@@H]2[C@H]1C(=O)N[C@@H](Cc1ccc3ccccc3c1)C(=O)N[C@H](C(=O)O)Cc1ccc(cc1)OCc1cn(nn1)[C@@H]1CCN(C(=O)[C@@H](NC(=O)[C@H](C)NC)C(C)(C)C)[C@@H]1C(=O)N[C@@H](Cc1ccc3ccccc3c1)C(=O)N[C@H](c1nc(=S)o[nH]1)Cc1ccc(cc1)OCc1cn2nn1)C(C)(C)C` [Example 18]: in test [1], the IC50 came to 2.2 nM.
For `CN[C@@H](C)C(=O)N[C@H](C(=O)N1CC[C@@H]2[C@H]1C(=O)N[C@@H](Cc1ccc3ccccc3c1)C(=O)N[C@H](C(=O)O)Cc1ccc(cc1)OCc1cn(nn1)[C@@H]1CCN(C(=O)[C@@H](NC(=O)[C@H](C)NC)C(C)(C)C)[C@@H]1C(=O)N[C@@H](Cc1ccc3ccccc3c1)C(=O)N[C@H](c1nc(=O)o[nH]1)Cc1ccc(cc1)OCc1cn2nn1)C(C)(C)C` [Example 19], the IC50 in test [1] came out at 0.4 nM; in test [2], 2 nM.
The corresponding values for `CN[C@@H](C)C(=O)N[C@H](C(=O)N1CC[C@@H]2[C@H]1C(=O)N[C@@H](Cc1ccc3ccccc3c1)C(=O)N[C@H](C(=O)O)Cc1ccc(cc1)OCc1cn(nn1)[C@@H]1CCN(C(=O)[C@@H](NC(=O)[C@H](C)NC)C(C)(C)C)[C@@H]1C(=O)N[C@@H](Cc1ccc3ccccc3c1)C(=O)N[C@H](c1nc(=O)o[nH]1)Cc1ccc(cc1)OCc1cn2nn1)C(C)(C)C` [Example 20] are 2.9 nM and 10.1 nM.
